Patent US20260176282A1, “BICYCLIC COMPOUNDS AS CDK INHIBITORS” (BEONE MEDICINES I GMBH, priority 2023, published 2026)
Where two headings read alike, the source gives them in different places.

Tests used:
CDK1/Cyclin B1 = CDK1/Cyclin B1 (Homo sapiens, UniProt P06493); assay: CDK1/Cyclin B1 TR-FRET biochemical assay (1 mM ATP); conditions: 90 minutes reaction
Protocol: (§1) Compounds disclosed herein were tested for inhibition of CDK2/Cyclin E1 or CDK1/Cyclin B1 kinase in an assay based on the time-resolved fluorescence-resonance energy transfer (TR-FRET) methodology. The assay was carried out in 384-well low volume black plates in a reaction mixture containing CDK2/Cyclin E1 or CDK1/Cyclin B1, 1 mM ATP for CDK2/Cyclin E1 and CDK1/Cyclin B1, 0.15 μM Rb (Ser780)-biotin substrate and 0-10 μM compound in buffer containing 50 mM HEPES pH7.0, 0.02% NaN3, 0.01% BSA, 0.1 mM Orthovanadate, 50 mM MgCl2, 1 mM DTT and 0.005% Tween-20. The kinase was incubated with compound for 60 minutes at room temperature and the reaction was initiated by the addition of ATP and Rb (Ser780)-biotin substrate. After reaction at room temperature for 90 minutes, an equal volume of stop/detection solution was added according to the manufacture's instruction (Cisbio Bioassays). The stop/detection solution contained Streptavidin-XL665 and Anti-pRb (Ser780) mAb-Eu Cryptate in Detection buffer (Cisbio Bioassays). Plates were incubated at room temperature for 60 minutes, and the TR-FRET signals (ex337 nm, em665 nm/620 nm) were recorded on a PHERAstar FSX plate reader (BMG Labtech). The inhibition percentage of CDK2/Cyclin E1 or CDK1/Cyclin B1 kinase activity in presence of increasing concentrations of compounds was calculated based on the ratio of fluorescence at 665 nm to that at 620 nm. The IC50 for each compound was derived from fitting the data to the four-parameter logistic equation by Dotmatics.

CDK2/Cyclin E1 = CDK2/Cyclin E1 (Homo sapiens, UniProt P24941); assay: CDK2/Cyclin E1 TR-FRET biochemical assay (1 mM ATP); conditions: 90 minutes reaction
Protocol: as §1

HEK-293 cells = assay: HEK-293 cell cytotoxicity detection (CellTiter-Glo); assay type: cell-based; conditions: incubation of 72 h, CellTiter-Glo luminescence
Protocol: HEK-293 cells were treated with compounds diluted in 0.4% DMSO, dilution was done according to the following protocol: (1) making 250× stock solution in DMSO from 10 mM by 4-fold dilution, total 8 doses were included; (2) making 2 solution in cell culture medium by transferring 1 μl 250× stock solution into 124 μl medium; (3) adding 50 μl of 2× solution to cells for incubation of 72 h.
25 μl of the CellTiter-Glo® Reagent [(PromegaCat #G9242)] was added to each well in the 96-well plate. The contents were mixed for 2 minutes on an orbital shaker to induce cell lysis. The plate was then allowed to incubate at room temperature for 10 minutes to stabilize luminescent signal. Luminescence was recorded on BMG PheraStar with luminescence protocol.
The IC50 value of a compound can be obtained by fitting the following equation: […]
Wherein, X and Y are known values, and IC50, Hillslope, Top and Bottom are the parameters obtained by fitting with software. Y is the inhibition percentage (calculated from the equation), X is the concentration of the compound; IC50 is the concentration of the compound when the 50% inhibition is reached. The smaller the IC50 value is, the stronger the inhibitory ability of the compound is. Vice versa, the higher the IC50 value is, the weaker the ability the inhibitory ability of the compound is; Hillslope represents the slope of the fitted curve, generally around 1*; Bottom represents the minimum value of the curve obtained by data fitting, which is generally 0%±20%; Top represents the maximum value of the curve obtained by data fitting, which is generally 100%±20%. The experimental data were fitted by calculating and analyzing with Dotmatics data analysis software.

Sequence of CDK1/Cyclin B1 (P06493 whole entry): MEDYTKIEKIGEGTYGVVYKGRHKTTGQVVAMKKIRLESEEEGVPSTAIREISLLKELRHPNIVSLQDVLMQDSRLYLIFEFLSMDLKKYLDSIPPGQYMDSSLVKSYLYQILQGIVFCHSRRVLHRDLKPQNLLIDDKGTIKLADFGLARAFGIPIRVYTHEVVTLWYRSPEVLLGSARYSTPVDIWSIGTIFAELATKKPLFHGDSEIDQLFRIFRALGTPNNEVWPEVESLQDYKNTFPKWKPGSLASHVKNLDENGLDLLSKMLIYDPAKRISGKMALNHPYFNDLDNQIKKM
Sequence of CDK1/Cyclin B1 (P14635 whole entry partner): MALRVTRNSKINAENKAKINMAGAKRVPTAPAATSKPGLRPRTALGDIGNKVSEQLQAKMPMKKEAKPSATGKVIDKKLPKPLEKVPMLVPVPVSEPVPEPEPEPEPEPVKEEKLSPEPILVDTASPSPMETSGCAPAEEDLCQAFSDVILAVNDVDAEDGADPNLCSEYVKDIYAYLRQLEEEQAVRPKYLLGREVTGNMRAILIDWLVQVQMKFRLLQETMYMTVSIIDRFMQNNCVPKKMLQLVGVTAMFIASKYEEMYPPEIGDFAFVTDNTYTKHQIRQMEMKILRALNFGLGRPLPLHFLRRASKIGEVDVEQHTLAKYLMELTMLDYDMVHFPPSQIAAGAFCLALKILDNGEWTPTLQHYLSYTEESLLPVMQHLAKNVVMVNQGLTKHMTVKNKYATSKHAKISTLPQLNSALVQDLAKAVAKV

Row | SMILES | IC50 (CDK1/Cyclin B1) | IC50 (CDK2/Cyclin E1) | IC50 (HEK-293 cells; Homo sapiens, HEK293, 72 h) | IC50 (HEK-293 cells; read-out: HEK293 IC50)
1 | Cc1c(Nc2cc([C@@H]3CC[C@H](OC(=O)NC(C)C)C3)[nH]n2)ccc2c1CS(=O)(=O)C2 (relative stereo) [Example 35, cis-3-(3-((4-methyl-2,2-dioxido-1,3-dihydrobenzo[c]thiophen-5-yl)amino)-1H-pyrazol-5-yl)cyclopentyl isopropylcarbamate] | 0.169 µM | 0.0004 µM | 0.739 µM | 
2 | CC1(NC(=O)OC2CCC(c3cc(Nc4ccc5c(c4F)CS(=O)(=O)C5)n[nH]3)C2)CCOC1 (single isomer, unassigned) [Example 13a, cis-3-(3-((4-fluoro-2,2-dioxido-1,3-dihydrobenzo[c]thiophen-5-yl)amino)-1H-pyrazol-5-yl)cyclopentyl (3-methyltetrahydrofuran-3-yl)carbamate] | 0.493 µM | 0.0005 µM |  | 2.15 µM
3 | CC(C)NC(=O)O[C@H]1CC[C@@H](c2cc(Nc3cc4c(cc3F)CS(=O)(=O)C4)n[nH]2)C1 (relative stereo) [Example 27, cis-3-(3-((6-fluoro-2,2-dioxido-1,3-dihydrobenzo[c]thiophen-5-yl)amino)-1H-pyrazol-5-yl)cyclopentyl isopropylcarbamate] | 7.45 µM | 0.033 µM | > 10 µM | 
4 | O=C(NC1CCCC1)O[C@H]1CC[C@@H](c2cc(Nc3ccc4c(c3F)CS(=O)(=O)C4)n[nH]2)C1 (relative stereo) [Example 23, cis-3-(3-((4-fluoro-2,2-dioxido-1,3-dihydrobenzo[c]thiophen-5-yl)amino)-1H-pyrazol-5-yl)cyclopentyl cyclopentylcarbamate] | 0.41 µM | 0.0009 µM | 2.86 µM | 
5 | CC1(NC(=O)OC2CCC(c3cc(Nc4ccc5c(c4F)CS(=O)(=O)C5)n[nH]3)C2)CCOC1 (single isomer, unassigned) [Example 13b, cis-3-(3-((4-fluoro-2,2-dioxido-1,3-dihydrobenzo[c]thiophen-5-yl)amino)-1H-pyrazol-5-yl)cyclopentyl (3-methyltetrahydrofuran-3-yl)carbamate] | 0.353 µM | 0.0006 µM |  | 0.559 µM
6 | CC(C)NC(=O)O[C@H]1CC[C@@H](c2cc(Nc3cc4c(cc3F)CSC4)n[nH]2)C1 (relative stereo) [Example 30, cis-3-(3-((6-fluoro-1,3-dihydrobenzo[c]thiophen-5-yl)amino)-1H-pyrazol-5-yl)cyclopentyl isopropylcarbamate] | > 10 µM | 0.383 µM | > 10 µM | 
7 | CC1(NC(=O)OC2CCC(c3cc(Nc4ccc5c(c4F)CS(=O)(=O)C5)n[nH]3)C2)COC1 (single isomer, unassigned) [Example 15b, cis-3-(3-((4-fluoro-2,2-dioxido-1,3-dihydrobenzo[c]thiophen-5-yl)amino)-1H-pyrazol-5-yl)cyclopentyl (3-methyloxetan-3-yl)carbamate] | 0.505 µM | 0.002 µM |  | 9.9 µM
8 | C[C@]1(O)CC[C@@H](NC(=O)OC2CCC(c3cc(Nc4ccc5c(c4F)CS(=O)(=O)C5)n[nH]3)C2)CC1 (stereo partly drawn) [Example 25, cis-3-(3-((4-fluoro-2,2-dioxido-1,3-dihydrobenzo[c]thiophen-5-yl)amino)-1H-pyrazol-5-yl)cyclopentyl ((1s,4s)-4-hydroxy-4-methylcyclohexyl)carbamate] | 0.768 µM | 0.0018 µM | 1.13 µM | 
9 | CC(C)NC(=O)O[C@H]1CC[C@@H](c2cc(Nc3ccc4c(c3F)C[S+]([O-])C4)n[nH]2)C1 (relative stereo) [Example 31, cis-3-(3-((4-fluoro-2-oxido-1,3-dihydrobenzo[c]thiophen-5-yl)amino)-1H-pyrazol-5-yl)cyclopentyl isopropylcarbamate] | 3.36 µM | 0.0053 µM | 1.57 µM | 
10 | C[C@]1(O)CC[C@H](NC(=O)OC2CCC(c3cc(Nc4ccc5c(c4F)CS(=O)(=O)C5)n[nH]3)C2)CC1 (stereo partly drawn) [Example 34, cis-3-(3-((4-fluoro-2,2-dioxido-1,3-dihydrobenzo[c]thiophen-5-yl)amino)-1H-pyrazol-5-yl)cyclopentyl ((1r,4r)-4-hydroxy-4-methylcyclohexyl)carbamate] | 1.18 µM | 0.0011 µM | 1.43 µM | 
11 | CCNC(=O)OC1CCC(c2cc(Nc3ccc4c(c3F)CS(=O)(=O)C4)n[nH]2)C1 (single isomer, unassigned) [Example 18b, cis-3-(3-((4-fluoro-2,2-dioxido-1,3-dihydrobenzo[c]thiophen-5-yl)amino)-1H-pyrazol-5-yl)cyclopentyl ethylcarbamate] | 0.555 µM | 0.0052 µM |  | 0.522 µM
12 | CCN(C)C(=O)O[C@H]1CC[C@@H](c2cc(Nc3ccc4c(c3F)CS(=O)(=O)C4)n[nH]2)C1 (relative stereo) [Example 32, cis-3-(3-((4-fluoro-2,2-dioxido-1,3-dihydrobenzo[c]thiophen-5-yl)amino)-1H-pyrazol-5-yl)cyclopentyl ethyl(methyl)carbamate] | 0.493 µM | 0.0042 µM | > 10 µM | 
13 | O=C(NC1COC1)O[C@H]1CC[C@@H](c2cc(Nc3ccc4c(c3F)CS(=O)(=O)C4)n[nH]2)C1 (relative stereo) [Example 20, cis-3-(3-((4-fluoro-2,2-dioxido-1,3-dihydrobenzo[c]thiophen-5-yl)amino)-1H-pyrazol-5-yl)cyclopentyl oxetan-3-ylcarbamate] | 4.83 µM | 0.031 µM | > 10 µM | 
14 | CN(C(=O)O[C@H]1CC[C@@H](c2cc(Nc3ccc4c(c3F)CS(=O)(=O)C4)n[nH]2)C1)C1CCOC1 (relative stereo) [Example 21, cis-3-(3-((4-fluoro-2,2-dioxido-1,3-dihydrobenzo[c]thiophen-5-yl)amino)-1H-pyrazol-5-yl)cyclopentyl methyl(tetrahydrofuran-3-yl)carbamate] | 2.6 µM | 0.024 µM | > 10 µM | 
15 | Cc1cc2c(cc1Nc1cc([C@@H]3CC[C@H](OC(=O)NC(C)C)C3)[nH]n1)CS(=O)(=O)C2 (relative stereo) [Example 28, cis-3-(3-((6-methyl-2,2-dioxido-1,3-dihydrobenzo[c]thiophen-5-yl)amino)-1H-pyrazol-5-yl)cyclopentyl isopropylcarbamate] | 2.9 µM | 0.0094 µM | > 10 µM | 
16 | O=C(N[C@H]1CC[C@H](O)CC1)OC1CCC(c2cc(Nc3ccc4c(c3F)CS(=O)(=O)C4)n[nH]2)C1 (stereo partly drawn) [Example 26, cis-3-(3-((4-fluoro-2,2-dioxido-1,3-dihydrobenzo[c]thiophen-5-yl)amino)-1H-pyrazol-5-yl)cyclopentyl ((1r,4r)-4-hydroxycyclohexyl)carbamate] | 0.376 µM | 0.0015 µM | 0.998 µM | 
17 | O=C(NC1CCC1)O[C@H]1CC[C@@H](c2cc(Nc3ccc4c(c3F)CS(=O)(=O)C4)n[nH]2)C1 (relative stereo) [Example 12, cis-3-(3-((4-fluoro-2,2-dioxido-1,3-dihydrobenzo[c]thiophen-5-yl)amino)-1H-pyrazol-5-yl)cyclopentyl cyclobutylcarbamate] | 0.609 µM | 0.0012 µM | 0.499 µM | 
18 | CC(C)NC(=O)O[C@H]1CC[C@@H](c2cc(Nc3cc4c(cc3F)C[S+]([O-])C4)n[nH]2)C1 (relative stereo) [Example 29, cis-3-(3-((6-fluoro-2-oxido-1,3-dihydrobenzo[c]thiophen-5-yl)amino)-1H-pyrazol-5-yl)cyclopentyl isopropylcarbamate] | > 10 µM | 0.576 µM | > 10 µM | 
